Columns and labels:
[1] = target: T1, human BRD4 bromodomain II (Homo sapiens, UniProt O60885); experiment: Bromodomain binding assay (AlphaScreen), BRD4 BDII; details: BRD4 BDII AlphaScreen assay; read-out: BRD4 BD2 IC50
T1 construct: human BRD4 bromodomain II [based on Genbank NM_058243, residues 349-460]; host or cells: E. coli
Summary of the method: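 First, His6-tagged BRD4 bromodomain (BDI residues 44-170 or BDII residues 349-460) is incubated with compound for 30 min at room temperature. Next the biotinylated H4 peptide is added for 30 min, then donor and acceptor beads, with 60 min in the dark before AlphaScreen reading and IC50 fitting.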

[2] = tested on: human SKM-1 acute myeloid leukemia cells; experiment: SKM-1 antiproliferation cell-based assay (ATPlite)
Summary of the method: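 Log-phase cells in RPMI 1640/15% FBS were seeded at 34722 cells/mL and exposed for 4 days to nine-concentration DMSO serial dilutions in triplicate. Viability was read as ATP luminescence (ATPlite 1step), and IC50 values came from variable-slope non-linear regression.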

[3] = Homo sapiens, SKM-1, SKM-1 antiproliferation assay

IC50 [1] [nM]	GI50 ([2]; SKM-1 antiproliferation assay) [nM]	GI50 [2, 3] [nM]	Structure (SMILES)
> 100	300 to 3000		CC(C)c1cc(-c2cc(F)cc(-c3cccc(N4CCN(C(C)(C)C)CC4)c3)c2O)cc(Cl)c1-n1ccn(C)c1=O [Example 935, (S)-1-(3″-(4-(tert-butyl)piperazin-1-yl)-3-chloro-5′-fluoro-2′-hydroxy-5-isopropyl-[1,1′:3′,1″-terphenyl]-4-yl)-3-methyl-1,3-dihydro-2H-imidazol-2-one]
> 100		300 to 3000	Cc1nc(-c2cc(F)cc(-c3cccc(N4CCN(C(C)(C)C)CC4)c3)c2O)ccc1-n1ccn(C)c1=O [Example 936, 1-(6-(3′-(4-(tert-butyl)piperazin-1-yl)-5-fluoro-2-hydroxy-[1,1′-biphenyl]-3-yl)-2-methylpyridin-3-yl)-3-methyl-1H-imidazol-2(3H)-one]
10 to 100		30 to 300	CC(C)Oc1cc(-c2cc(F)cc(-c3cccc(N4CCN(C(C)(C)C)CC4)c3)c2O)cc(Cl)c1-n1ccn(C)c1=O [Example 937, 1-(3″-(4-(tert-butyl)piperazin-1-yl)-3-chloro-5′-fluoro-2′-hydroxy-5-isopropoxy-[1,1′:3′,1″-terphenyl]-4-yl)-3-methyl-1,3-dihydro-2H-imidazol-2-one]
1 to 10		0.3 to 30	[2H]C([2H])([2H])n1ccn(-c2ccc(-c3cc(F)cc(-c4cnc(OC)c(N5CCN(C(C)(C)C)CC5)c4)c3O)cc2Cl)c1=O [Example 938, 1-(3′-(5-(4-(tert-butyl)piperazin-1-yl)-6-methoxypyridin-3-yl)-3-chloro-5′-fluoro-2′-hydroxy-[1,1′-biphenyl]-4-yl)-3-(methyl-d3)-1,3-dihydro-2H-imidazol-2-one]
1 to 10		0.3 to 30	COc1ncc(-c2cc(F)cc(-c3ccc(-n4ccn(C)c4=O)c(F)c3)c2O)cc1N1CCN(C(C)(C)C)CC1 [Example 939, 1-(3′-(5-(4-(tert-butyl)piperazin-1-yl)-6-methoxypyridin-3-yl)-3,5′-difluoro-2′-hydroxy-[1,1′-biphenyl]-4-yl)-3-methyl-1H-imidazol-2(3H)-one]
> 100		300 to 3000	Cc1cc(-c2cc(F)cc(-c3cccc(N4CCN(C(C)(C)C)CC4)c3)c2O)ncc1-n1ccn(C)c1=O [Example 940, 1-(6-(3′-(4-(tert-butyl)piperazin-1-yl)-5-fluoro-2-hydroxy-[1,1′-biphenyl]-3-yl)-4-methylpyridin-3-yl)-3-methyl-1H-imidazol-2(3H)-one]
1 to 10		0.3 to 30	COc1ncc(-c2cc(F)cc(-c3ccc(-n4c(C)cn(C)c4=O)c(Cl)c3)c2O)cc1N1CCN(C(C)(C)C)CC1 [Example 941, 3-(3′-(5-(4-(tert-butyl)piperazin-1-yl)-6-methoxypyridin-3-yl)-3-chloro-5′-fluoro-2′-hydroxy-[1,1′-biphenyl]-4-yl)-1,4-dimethyl-1H-imidazol-2(3H)-one]
> 100		300 to 3000	Cn1ccn(-c2ccc(-c3cc(F)cc(-c4cc(N5CCN(C(C)(C)C)CC5)ncn4)c3O)cc2Cl)c1=O [Example 942, 1-(3′-(6-(4-(tert-butyl)piperazin-1-yl)pyrimidin-4-yl)-3-chloro-5′-fluoro-2′-hydroxy-[1,1′-biphenyl]-4-yl)-3-methyl-1H-imidazol-2(3H)-one]
1 to 10		0.3 to 30	Cn1ccn(-c2ccc(-c3cc(F)cc(-c4cccc(N5CC6CNCC6C5)c4)c3O)cc2Cl)c1=O (stereo not shown) [Example 943, 1-(3-chloro-5′-fluoro-3″-(hexahydropyrrolo[3,4-c]pyrrol-2(1H)-yl)-2′-hydroxy-[1,1′:3′,1″-terphenyl]-4-yl)-3-methyl-1,3-dihydro-2H-imidazol-2-one]
> 100		300 to 3000	Cn1ccn(-c2ccc(-c3cc(F)cc(-c4cccc(N5CCN(C(C)(C)C)CC5)c4)c3O)nc2)c1=O [Example 944, 1-(6-(3′-(4-(tert-butyl)piperazin-1-yl)-5-fluoro-2-hydroxy-[1,1′-biphenyl]-3-yl)pyridin-3-yl)-3-methyl-1H-imidazol-2(3H)-one]
1 to 10		0.3 to 30	Cn1ccn(-c2ccc(-c3cc(F)cc(-c4cccc(N5CCN(C(C)(C)C)CC5)c4)c3O)cc2F)c1=O [Example 945, 1-(3″-(4-(tert-butyl)piperazin-1-yl)-3,5′-difluoro-2′-hydroxy-[1,1′:3′,1″-terphenyl]-4-yl)-3-methyl-1H-imidazol-2(3H)-one]
1 to 10		30 to 300	CC(C)N1CC2CN(c3cccc(-c4cc(F)cc(-c5ccc(-n6ccn(C)c6=O)c(Cl)c5)c4O)c3)CC2C1 (stereo not shown) [Example 946, 1-(3-chloro-5′-fluoro-2′-hydroxy-3″-(5-isopropylhexahydropyrrolo[3,4-c]pyrrol-2(1H)-yl)-[1,1′:3′,1″-terphenyl]-4-yl)-3-methyl-1,3-dihydro-2H-imidazol-2-one]
1 to 10		0.3 to 30	COc1ncc(-c2cc(F)cc(-c3ccc(-n4ccn(C)c4=O)c(C)c3)c2O)cc1N1CCN(C(C)(C)C)CC1 [Example 948, 1-(3′-(5-(4-(tert-butyl)piperazin-1-yl)-6-methoxypyridin-3-yl)-5′-fluoro-2′-hydroxy-3-methyl-[1,1′-biphenyl]-4-yl)-3-methyl-1,3-dihydro-2H-imidazol-2-one]
1 to 10		0.3 to 30	Cc1cc(-c2cc(F)cc(-c3cccc(N4CCN(C(C)(C)C)CC4)c3)c2O)ccc1-n1ccn(C)c1=O [Example 949, 1-(3″-(4-(tert-butyl)piperazin-1-yl)-5′-fluoro-2′-hydroxy-3-methyl-[1,1′:3′,1″-terphenyl]-4-yl)-3-methyl-1,3-dihydro-2H-imidazol-2-one]
> 100		300 to 3000	Cn1ccn(-c2ccc(-c3cc(F)cc(-c4cccc(N5CCN(C(C)(C)C)CC5)n4)c3O)cc2Cl)c1=O [Example 950, 1-(3′-(6-(4-(tert-butyl)piperazin-1-yl)pyridin-2-yl)-3-chloro-5′-fluoro-2′-hydroxy-[1,1′-biphenyl]-4-yl)-3-methyl-1H-imidazol-2(3H)-one]
1 to 10		0.3 to 30	Cn1ccn(-c2ccc(-c3cc(F)cc(-c4cccc(C5=CCN(C(C)(C)C)CC5)c4)c3O)cc2Cl)c1=O [Example 951, 1-(3″-(1-(tert-butyl)-1,2,3,6-tetrahydropyridin-4-yl)-3-chloro-5′-fluoro-2′-hydroxy-[1,1′:3′,1″-terphenyl]-4-yl)-3-methyl-1H-imidazol-2(3H)-one]
> 100		300 to 3000	Cn1ccn(-c2c(O)cc(-c3cc(F)cc(-c4cccc(N5CCN(C(C)(C)C)CC5)c4)c3O)cc2Cl)c1=O [Example 952, 1-(3″-(4-(tert-butyl)piperazin-1-yl)-3-chloro-5′-fluoro-2′,5-dihydroxy-[1,1′:3′,1″-terphenyl]-4-yl)-3-methyl-1H-imidazol-2(3H)-one]
> 100		300 to 3000	Cn1ccn(-c2ccc(-c3cc(F)cc(-c4cc(N5CCN(C(C)(C)C)CC5)ccn4)c3O)cc2Cl)c1=O [Example 953, 1-(3′-(4-(4-(tert-butyl)piperazin-1-yl)pyridin-2-yl)-3-chloro-5′-fluoro-2′-hydroxy-[1,1′-biphenyl]-4-yl)-3-methyl-1H-imidazol-2(3H)-one]
1 to 10		0.3 to 30	CC(C)N1CCC12CCN(c1cc(-c3cc(F)cc(-c4ccc(-n5ccn(C)c5=O)c(Cl)c4)c3O)cnc1N)C2 (stereo not shown) [Example 954, 1-(3′-(6-amino-5-(1-isopropyl-1,6-diazaspiro[3.4]octan-6-yl)pyridin-3-yl)-3-chloro-5′-fluoro-2′-hydroxy-[1,1′-biphenyl]-4-yl)-3-methyl-1H-imidazol-2(3H)-one]
1 to 10		0.3 to 30	Cc1ncc(-c2cc(F)cc(-c3ccc(-n4ccn(C)c4=O)c(Cl)c3)c2O)cc1N1CC[C@@]2(CCCN2C(C)C)C1 [Example 955, (S)-1-(3-chloro-5′-fluoro-2′-hydroxy-3′-(5-(1-isopropyl-1,7-diazaspiro[4.4]nonan-7-yl)-6-methylpyridin-3-yl)-[1,1′-biphenyl]-4-yl)-3-methyl-1,3-dihydro-2H-imidazol-2-one]
1 to 10		0.3 to 30	Cc1ncc(-c2cc(F)cc(-c3ccc(-n4ccn(C)c4=O)c(Cl)c3)c2O)cc1N1CC[C@]2(CCCN2C(C)C)C1 [Example 956, (R)-1-(3-chloro-5′-fluoro-2′-hydroxy-3′-(5-(1-isopropyl-1,7-diazaspiro[4.4]nonan-7-yl)-6-methylpyridin-3-yl)-[1,1′-biphenyl]-4-yl)-3-methyl-1,3-dihydro-2H-imidazol-2-one]
0.01 to 1		0.3 to 30	COc1ncc(-c2cc(F)cc(-c3ccc(-n4ccn(C)c4=O)c(Cl)c3)c2O)cc1N1CC[C@@]2(CCCN2C(C)C)C1 [Example 957, (S)-1-(3-chloro-5′-fluoro-2′-hydroxy-3′-(5-(1-isopropyl-1,7-diazaspiro[4.4]nonan-7-yl)-6-methoxypyridin-3-yl)-[1,1′-biphenyl]-4-yl)-3-methyl-1,3-dihydro-2H-imidazol-2-one]
0.01 to 1		0.3 to 30	COc1ncc(-c2cc(F)cc(-c3ccc(-n4ccn(C)c4=O)c(Cl)c3)c2O)cc1N1CC[C@]2(CCCN2C(C)C)C1 [Example 958, (R)-1-(3-chloro-5′-fluoro-2′-hydroxy-3′-(5-(1-isopropyl-1,7-diazaspiro[4.4]nonan-7-yl)-6-methoxypyridin-3-yl)-[1,1′-biphenyl]-4-yl)-3-methyl-1,3-dihydro-2H-imidazol-2-one]

— patent publication US20250179059A1 (The Regents of the University of California, priority 2021, published 2025)
